Laboratory results taken from patent US7495104B2, “Quinoline or quinazoline derivatives inhibiting auto-phosphorylation of fibroblast growth factor receptors” (Kirin Beer Kabushiki Kaisha, priority 2001, dated 2009).
pIC50: −log10 of the molar value.

What follows are molecules tested against Bek (Homo sapiens, UniProt P21802) (assay: Inhibitory activity against Bek-autophosphorylation using ELISA method in OCUM-2MD3 cells). Details: 1 hr with compound, read-out: IC50 (concentration necessary for inhibiting 50% of Bek-phosphorylation).
Format: cell-based
Protocol: Human scirrhus stomach cancer cells OCUM-2MD3 (kindly provided by Dr. Kosei Hirakawa, Osaka City University) were cultured in an RPMI medium containing 10% fetal calf serum (purchased from ICN) within a 5% carbon dioxide incubator until 50 to 90% confluent. The harvested cells were seeded onto 96-well flat-bottom plate in RPMI containing 0.1% fetal calf serum at 3.5×10^4 cells per well, followed by cultivation at 37° C. overnight. A solution of the test compound in dimethyl sulfoxide was added to each well, and the cultivation was continued at 37° C. for additional one hr. The medium was removed, and 50 μl of lysis buffer (20 mM HEPES (pH 7.4), 150 mM NaCl, 0.2% Triton X-100, 10% glycerol, 5 mM sodium orthovanadylate, 5 mM disodium ethylenediaminetetraacetate, and 2 mM Na4P2O7) was then added thereto. The mixture was shaken at 4° C. for 2 hr to prepare cell extracts.
Separately, phosphate buffered saline (50 μl, pH 7.4) containing 5 μg/ml of anti-phospho-tyrosine antibody (PY20; purchased from Transduction Laboratories) was added to a microplate for ELISA (Maxisorp; purchased from NUNC), followed by standing at 4° C. overnight to form a solid phase on the wells. After washing of the plate, 300 μl of a blocking solution was added, followed by standing at room temperature for 2 hr to perform blocking. After washing, the whole quantity of the cell extracts was transferred to the wells, and the plate was then allowed to stand at 4° C. overnight. After washing, an anti-Bek antibody (Bek (C-17), purchased from Santa Cruz Biotechnology) or Anti-Human K-sam Rabbit IgG Affinity Purity (purchased from IBL Co., Ltd.) was allowed to react at room temperature for one hr, and, after washing, a peroxidase-labeled anti-rabbit Ig antibody (purchased from Amersham) was allowed to react at room temperature for one hr. After washing, a chromophoric substrate for peroxidase (purchased from Sumitomo Bakelite Co., Ltd.) was added thereto to initiate a reaction. After a suitable level of color development, a reaction termination solution was added to stop the reaction, and the absorbance at 450 nm was measured with a microplate reader. The Bek-phosphorylation activity for each well was determined by presuming the absorbance without the addition of the medicament to be 100% Bek-phosphorylation activity and the absorbance with the addition of a large excess of a positive control (N-{4-[(6,7-dimethoxy-4-quinolyl)oxy]phenyl}-N′-(3,3-dimethylbutyl)urea, 1000 nM) to be 0% Bek-phosphorylation activity. The concentration of the test compound was varied on several levels, the Bek-phosphorylation inhibitory activity was determined for each case, and the concentration of the test compound necessary for inhibiting 50% of Bek-phosphorylation (IC50) was calculated.

Chain of Bek (P21802 431-767 limits assumed): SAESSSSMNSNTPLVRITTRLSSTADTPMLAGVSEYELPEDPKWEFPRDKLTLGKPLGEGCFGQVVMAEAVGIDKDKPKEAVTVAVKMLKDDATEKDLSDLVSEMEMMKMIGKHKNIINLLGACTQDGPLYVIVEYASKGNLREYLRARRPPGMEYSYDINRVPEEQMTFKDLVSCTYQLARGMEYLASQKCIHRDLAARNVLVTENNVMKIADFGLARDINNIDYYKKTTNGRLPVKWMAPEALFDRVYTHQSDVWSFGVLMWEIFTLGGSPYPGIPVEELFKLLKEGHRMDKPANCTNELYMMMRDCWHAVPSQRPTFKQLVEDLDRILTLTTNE

Row | Compound | pIC50
1 | C=C[C@H]1CN2CCC1C[C@@H]2COc1cc2nccc(Oc3ccc(Nc4ccc(C(C)(C)C)cc4)cc3)c2cc1OC (stereo in doubt) [Compound 57, (4-Tert-butylphenyl)-{4-[6-methoxy-7-(5-vinyl-1-azabicyclo-[2.2.2]oct-2-ylmethoxy)quinolin-4-yloxy]phenyl}amine] | 5.42
2 | COc1ccc(Nc2ccc(Oc3ccnc4cc(OC)c(OC)cc34)cc2)cc1 [Compound 1, [4-(6,7-Dimethoxyquinolin-4-yloxy)phenyl]-(4-methoxyphenyl)-amine] | 5.41
3 | C=Cc1ccc(Nc2ccc(Oc3ccnc4cc(OC)c(OC)cc34)cc2)cc1 [Compound 2, [4-(6,7-Dimethoxyquinolin-4-yloxy)phenyl]-(4-vinylphenyl)amine] | 5.10
4 | COc1cc2nccc(Oc3ccc(Nc4ccc(-c5ccccc5)cc4)cc3)c2cc1OC [Compound 3, Biphenyl-4-yl-[4-(6,7-dimethoxyquinolin-4-yloxy)phenyl]amine] | 5.34
5 | COc1cc2nccc(Oc3ccc(Nc4ccc(F)cc4)cc3)c2cc1OC [Compound 4, [4-(6,7-Dimethoxyquinolin-4-yloxy)phenyl]-(4-fluorophenyl)amine] | 5.43
6 | COc1cc2nccc(Oc3ccc(Nc4ccc(C(C)(C)C)cc4)cc3)c2cc1OC [Compound 5, (4-Tert-butylphenyl)-[4-(6,7-dimethoxyquinolin-4-yloxy)phenyl]amine] | 6.49
7 | COc1cc2nccc(Oc3ccc(Nc4ccc(OC(F)(F)F)cc4)cc3)c2cc1OC [Compound 6, [4-(6,7-Dimethoxyquinolin-4-yloxy)phenyl]-(4-trifluoromethoxy-phenyl)amine] | 6.06
8 | COc1cc2nccc(Oc3ccc(Nc4ccc(OCc5ccccc5)cc4)cc3)c2cc1OC [Compound 7, (4-Benzyloxyphenyl)-[4-(6,7-dimethoxyquinolin-4-yloxy)phenyl]-amine] | 5.75
9 | CCCCc1ccc(Nc2ccc(Oc3ccnc4cc(OC)c(OC)cc34)cc2)cc1 [Compound 8, (4-Butylphenyl)-[4-(6,7-dimethoxyquinolin-4-yloxy)phenyl]amine] | 5.82
10 | COc1cc2nccc(Oc3ccc(Nc4ccc(C(C)C)cc4)cc3)c2cc1OC [Compound 9, [4-(6,7-Dimethoxyquinolin-4-yloxy)phenyl]-(4-isopropylphenyl)-amine] | 6.50
11 | COc1cc2nccc(Oc3ccc(Nc4ccc(C5CCCCC5)cc4)cc3)c2cc1OC [Compound 10, (4-Cyclohexylphenyl)-[4-(6,7-dimethoxyquinolin-4-yloxy)phenyl]-amine] | 6.20
12 | COc1cc2nccc(Oc3ccc(Nc4ccc(C(C)(C)C)cc4)c(Cl)c3)c2cc1OC [Compound 11, (4-Tert-butylphenyl)-[2-chloro-4-(6,7-dimethoxyquinolin-4-yloxy)phenyl]amine] | 6.49
13 | COc1cc2nccc(Oc3ccc(Nc4ccc(C(C)(C)C)cc4)cc3Cl)c2cc1OC [Compound 12, (4-Tert-butylphenyl)-[3-chloro-4-(6,7-dimethoxyquinolin-4-yloxy)phenyl]amine] | 6.54
14 | COc1cc2nccc(Oc3ccc(Nc4ccc(C(C)(C)C)cc4)c(C)c3)c2cc1OC [Compound 13, (4-Tert-butylphenyl)-[4-(6,7-dimethoxyquinolin-4-yloxy)-2-methylphenyl]amine] | 6.55
15 | COc1cc(Oc2ccnc3cc(OC)c(OC)cc23)ccc1Nc1ccc(C(C)(C)C)cc1 [Compound 14, (4-Tert-butylphenyl)-[4-(6,7-dimethoxyquinolin-4-yloxy)-2-methoxyphenyl]amine] | 5.72
16 | COc1cc2nccc(Oc3ccc(Nc4ccc(C(C)(C)C)cc4)cc3OC)c2cc1OC [Compound 15, (4-Tert-butylphenyl)-[4-(6,7-dimethoxyquinolin-4-yloxy)-3-methoxyphenyl]amine] | 6.37
17 | COc1cc2nccc(Oc3ccc(Nc4ccc(C(C)(C)C)cc4)c(C)c3C)c2cc1OC [Compound 16, (4-Tert-butylphenyl)-[4-(6,7-dimethoxyquinolin-4-yloxy)-2,3-dimethylphenyl]amine] | 6.62

Row | Compound | pIC50
18 | COc1cc2nccc(Oc3cc(C)c(Nc4ccc(C(C)(C)C)cc4)cc3C)c2cc1OC [Compound 17, (4-Tert-butylphenyl)-[4-(6,7-dimethoxyquinolin-4-yloxy)-2,5-dimethylphenyl]amine] | 5.25
19 | COc1cc2nccc(Oc3ccc(Nc4ccc(C(C)(C)C)cc4)cc3F)c2cc1OC [Compound 18, (4-Tert-butylphenyl)-[4-(6,7-dimethoxyquinolin-4-yloxy)-3-fluorophenyl]amine] | 6.81
20 | COc1cc2nccc(Oc3ccc(Nc4ccc(C(C)(C)C)cc4)c(F)c3)c2cc1OC [Compound 19, (4-Tert-butylphenyl)-[4-(6,7-dimethoxyquinolin-4-yloxy)-2-fluorophenyl]amine] | 6.71
21 | COc1cc2nccc(Oc3ccc(N(C)c4ccc(C(C)(C)C)cc4)cc3)c2cc1OC [Compound 20, (4-Tert-butylphenyl)-[4-(6.7-dimethoxyquinolin-4-yloxy)phenyl]-methylamine] | 6.49
22 | COc1cc2c(Oc3ccc(Nc4ccc(C(C)(C)C)cc4)cc3)ccnc2cc1O [Compound 21, 4-[4-(4-Tert-butylphenylamino)phenoxy]-6-methoxy-quinolin-7-ol] | 6.48
23 | COc1cc2c(Oc3ccc(Nc4ccc(C(C)(C)C)cc4)cc3)ccnc2cc1OCCCl [Compound 22, (4-Tert-butylphenyl)-{4-[7-(2-chloroethoxy)-6-methoxyquinolin-4-yloxy]phenyl}amine] | 6.72
24 | COc1cc2c(Oc3ccc(Nc4ccc(C(C)(C)C)cc4)cc3)ccnc2cc1OCCCCl [Compound 23, (4-Tert-butylphenyl)-{4-[7-(3-chloropropoxy)-6-methoxyquinolin-4-yloxy]phenyl}amine] | 6.12
25 | COc1cc2c(Oc3ccc(Nc4ccc(C(C)(C)C)cc4)cc3)ccnc2cc1OCCCN1CCOCC1 [Compound 24, (4-Tert-butylphenyl)-{4-[6-methoxy-7-(3-morpholin-4-ylpropoxy)quinolin-4-yloxy]phenyl}amine] | 6.74
26 | COc1cc2c(Oc3ccc(Nc4ccc(C(C)(C)C)cc4)cc3)ccnc2cc1OCCCCN1CCOCC1 [Compound 25, (4-Tert-butylphenyl)-{4-[6-methoxy-7-(4-morpholin-4-ylbutoxy)-quinolin-4-yloxy]phenyl}amine] | 6.70
27 | COc1cc2c(Oc3ccc(Nc4ccc(C(C)(C)C)cc4)cc3)ccnc2cc1OCCC(N)=O [Compound 26, 3-{4-[4-(4-Tert-butylphenylamino)phenoxy]-6-methoxyquinolin-7-yloxy}propionamide] | 6.50
28 | COc1cc2c(Oc3ccc(Nc4ccc(C(C)(C)C)cc4)cc3)ccnc2cc1OCCC1CCCN1C (stereo not shown) [Compound 27, (4-Tert-butylphenyl)-(4-{6-methoxy-7-[2-(1-methylpyrrolidin-2-yl)ethoxy]quinolin-4-yloxy}phenyl)amine] | 5.60
29 | COc1cc2c(Oc3ccc(Nc4ccc(C(C)(C)C)cc4)cc3)ccnc2cc1OCc1csc(C)n1 [Compound 28, (4-Tert-butylphenyl)-{4-[6-methoxy-7-(2-methylthiazol-4-ylmethoxy)quinolin-4-yloxy]phenyl}amine] | 5.62
30 | COc1cc2c(Oc3ccc(Nc4ccc(C(C)(C)C)cc4)cc3)ccnc2cc1OCCCCN1CCN(C)CC1 [Compound 29, (4-Tert-butylphenyl)-(4-{6-methoxy-7-[4-(4-methylpiperazin-1-yl)butoxy]quinolin-4-yloxy}phenyl)amine] | 6.03
31 | COc1cc2nccc(Oc3ccc(Oc4ccc(C(C)(C)C)cc4)cc3)c2cc1OC [Compound 30, 4-[4-(4-Tert-butylphenoxy)phenoxy]-6,7-dimethoxyquinoline] | 5.49
32 | COc1cc2nccc(Oc3ccc(C(OC(C)=O)c4ccc(C(C)(C)C)cc4)cc3)c2cc1OC (stereo not shown) [Compound 31, (4-Tert-butylphenyl)-[4-(6,7-dimethoxyquinolin-4-yloxy)phenyl]methyl acetate] | 6.00
33 | COc1cc2nccc(Oc3ccc(Cc4ccc(C(C)(C)C)cc4)cc3)c2cc1OC [Compound 32, 4-[4-(4-Tert-butylbenzyl)phenoxy]-6,7-dimethoxyquinoline] | 6.16
34 | COc1cc2c(Oc3ccc(Nc4ccc(C(C)(C)C)cc4)cc3)ccnc2cc1OCCN1CCN(C)CC1 [Compound 33, (4-Tert-butylphenyl)-(4-{6-methoxy-7-[2-(4-methylpiperazin-1-yl)ethoxy]quinolin-4-yloxy}phenyl)amine] | 6.81
